In ChEMBL document CHEMBL1139045, “Design and synthesis of a novel class of dual PPARgamma/delta agonists” (Bioorg Med Chem Lett, 2007):

Assays:
[1] = molecular target: T1, Peroxisome proliferator-activated receptor delta (Homo sapiens, UniProt Q03181); format: functional, cell-based, CV-1
T1 sequence (Q03181 whole entry): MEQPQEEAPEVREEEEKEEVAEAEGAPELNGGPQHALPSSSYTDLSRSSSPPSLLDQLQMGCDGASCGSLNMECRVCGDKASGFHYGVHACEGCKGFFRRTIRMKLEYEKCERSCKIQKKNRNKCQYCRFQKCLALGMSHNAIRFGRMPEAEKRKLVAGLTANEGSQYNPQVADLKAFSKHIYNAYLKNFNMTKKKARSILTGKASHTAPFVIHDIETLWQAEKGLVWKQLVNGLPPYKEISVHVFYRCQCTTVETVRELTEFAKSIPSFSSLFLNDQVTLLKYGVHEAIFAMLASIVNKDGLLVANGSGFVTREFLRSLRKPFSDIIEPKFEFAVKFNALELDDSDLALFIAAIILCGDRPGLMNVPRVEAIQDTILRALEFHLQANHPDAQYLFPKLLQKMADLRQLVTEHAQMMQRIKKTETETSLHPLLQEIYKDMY

[2] = molecular target: T2, Peroxisome proliferator-activated receptor alpha (Homo sapiens, UniProt Q07869)
T2 sequence (Q07869 whole entry): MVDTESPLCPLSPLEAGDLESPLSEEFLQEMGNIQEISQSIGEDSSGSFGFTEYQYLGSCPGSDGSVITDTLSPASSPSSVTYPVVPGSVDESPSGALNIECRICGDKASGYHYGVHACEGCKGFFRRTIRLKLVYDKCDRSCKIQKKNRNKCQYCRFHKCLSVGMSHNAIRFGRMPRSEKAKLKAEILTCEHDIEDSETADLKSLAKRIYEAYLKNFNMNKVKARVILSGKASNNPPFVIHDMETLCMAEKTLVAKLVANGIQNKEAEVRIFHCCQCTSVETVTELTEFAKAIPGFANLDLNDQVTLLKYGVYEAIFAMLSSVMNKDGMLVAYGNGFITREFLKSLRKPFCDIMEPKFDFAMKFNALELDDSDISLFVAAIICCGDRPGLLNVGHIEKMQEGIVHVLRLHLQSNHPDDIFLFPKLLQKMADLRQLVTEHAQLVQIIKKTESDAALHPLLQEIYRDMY

[3] = molecular target: T2, Peroxisome proliferator-activated receptor alpha; format: functional, cell-based, CV-1
[4] = molecular target: T1, Peroxisome proliferator-activated receptor delta
in vivo [5] = conditions: Sprague-Dawley, rat, po, 12 mg/kg
in vivo [6] = conditions: Sprague-Dawley, rat, iv, 1 mg/kg
in vivo [7] = conditions: Sprague-Dawley, rat, po, 12 mg/kg; remark: listed apart in the source
in vivo [8] = conditions: Sprague-Dawley, rat, po, 12 mg/kg; remark: listed apart in the source
in vivo [9] = conditions: db/db, mouse

SMILES	EC50 [1] [µM]	IC50 [2] [µM]	EC50 [3] [µM]	IC50 [4] [µM]	also measured
CCc1ccc(O[C@H](C)CCOc2ccc(CCC(=O)O)c(C)c2)c(-c2cccnc2)c1	–	–	2.9	–	–
CCc1ccc(O[C@H](C)CCOc2ccc(CCC(=O)O)c(C)c2)c(-c2ccsc2)c1	–	5.95	–	–	–
CCc1ccc(O[C@H](C)CCOc2ccc(CCC(=O)O)c(C)c2)c(-c2cocn2)c1	–	4.99	2.81	–	–
CCc1ccc(O[C@H](C)CCOc2ccc(CCC(=O)O)c(C)c2)c(-c2cscn2)c1	–	4.1	2.68	–	–
CCc1ccc(O[C@H](C)CCOc2ccc(CCC(=O)O)c(C)c2)c(-c2ncco2)c1	–	10.4	2.89	–	–
CCc1ccc(O[C@H](C)CCOc2ccc(CCC(=O)O)c(C)c2)c(-c2ccco2)c1	–	4.5	2.8	–	–

The next lines start with results.

EC50 [1] [µM]	IC50 [2] [µM]	EC50 [3] [µM]	IC50 [4] [µM]	SMILES	also measured
0.006	5.88	2.34	0.004	Cc1cc(OCC[C@@H](C)Oc2ccc(C(F)(F)F)cc2-c2ccccn2)ccc1CCC(=O)O	–
0.007	7.35	–	0.003	CCc1ccc(O[C@H](C)CCOc2ccc(CCC(=O)O)c(CC)c2)c(-c2ccccn2)c1	AUC (in vivo [5]): 75500 ng·h/mL; clearance (in vivo [6]): 1.9 mL/min/kg; bioavailability (in vivo [7]): 71%; half-life (in vivo [8]): 3 h
0.006	6.09	2.63	0.003	CCc1cc(OCC[C@@H](C)Oc2ccc(C(F)(F)F)cc2-c2ccccn2)ccc1CCC(=O)O	concentration at 1 h (in vivo [9]): 4200 ng/mL
